{"source": "patent US20080305559A1", "about": "“Non-Competitive Immunoassays to Detect Small Molecules” (priority 2005, published 2008)", "key": {"[1]": {"system": "anti-PBA polyclonal antibodies", "experiment": "Cross-reactivity of the noncompetitive phage ELISA for PBA", "type": "binding, rabbit", "settings": "for CR (%): % cross-reactivity=100×[SC50(PBA)/SC50(cross-reacting compound)]; for IC50: noncompetitive phage ELISA for PBA", "method": "The specificity of the noncompetitive assay set up with the phage borne peptide was characterized by determining its cross-reactivity with structurally related pesticides. PBA concentrations in the 0-50 ng/ml range were used in the noncompetitive ELISAs. Data were normalized, and the molar compound concentration corresponding to the midpoint of the curve, (which corresponds to the concentration of analyte producing 50% saturation of the signal (SC50), was used to express the cross-reactivity of the assay according to the equation:\n% cross−reactivity=100×[SC50(PBA)/SC50(cross−reacting compound)]"}, "MoAb K4E7 [2]": {"system": "MoAb K4E7", "settings": "atrazine, Giersch 1993; cited from earlier work"}, "MoAb K4E7 [3]": {"system": "MoAb K4E7", "settings": "atrazine; Cardozo et al. 2005; cited from earlier work"}, "[4]": {"system": "atrazine-MoAb K4E7 immunocomplex", "experiment": "Noncompetitive phage assay (PHAIA) for atrazine", "type": "binding", "settings": "atrazine as analyte; MoAb K4E7 immobilized; phage borne peptides as tracers", "method": "In this case, we used the MoAb K4E7 specific for atrazine. The conventional chemical hapten assay developed with this MoAb (see, e.g., Giersch, J Ag. Food Chem. 41: 1006-1011 (1993)) allows one to reach an IC50 of 0.5 ng/ml. We used the atrazine-MoAb K4E7 immunocomplex to select phage borne peptides that could be used to develop a noncompetitive assay. The protocols used for panning and assay set up were identical to those used for the molinate-MoAb 14D7 system described in Example 1 above. […] A short consensus sequence was identified: WFD. The consensus sequence can occur at position two or five of the random sequence. […]\nFifty μl per well of serial dilutions of molinate standard in PBST were dispensed into microtiter plates coated with MoAb 14D7, followed by the addition of 50 μl/well of the adequate dilution of the stabilized phage suspension. […] Absorbance values were fitted to a four-parameter logistic equation using the Genesis Lite 3.03 (Life Sciences (UK) Ltd.) package software. The lower detection limit (DL) of the assays was estimated as the analyte concentration corresponding to the absorbance equal to that of the zero standard plus three times its standard deviation)."}, "MoAb 14D7 [5]": {"system": "MoAb 14D7", "settings": "molinate, Rufo et al. 2004; cited from earlier work"}, "MoAb 14D7 [6]": {"system": "MoAb 14D7", "settings": "molinate; Cardozo et al. 2005; cited from earlier work"}, "[7]": {"system": "molinate-MoAb 14D7 immunocomplex", "experiment": "Noncompetitive phage ELISA (PHAIA) for molinate", "type": "binding", "settings": "molinate as analyte, plates coated with MoAb 14D7, named phage borne peptide as tracer", "excerpt": "In a similar way that the IC50 (the analyte concentration producing 50% inhibition) is used to denote the sensitivity of competitive methods, we refer to the concentration of analyte producing 50% saturation (SC50) in noncompetitive assays as a practical parameter to compare the sensitivity of our assays. […] For each of these clones, the assay conditions were optimized as described previously. […] These differences highlight the importance of the residues that flank the WDT consensus sequence of the selected peptides. This can be seen in the case of the S1 and S4 peptide sequences, which only differ in two amino acids and yield assays with SC50 of 5 and 32 ng/ml, respectively.\n(§1) Nunc-Immuno™ Maxi-Sorp™ plates were coated with MoAb 14D7 or molinate-MoAb 14D7 immunocomplex as described previously. The wells were blocked with 5% skimmed milk PBS, and washed three times with PBST. One hundred μl/well of an overnight culture of individual amplified phage clones were dispensed into the wells. The microtiter plates where then incubated for 1 h at room temperature with gentle rocking. After washing three times with PBST, 100 μL of a 1/5000 dilution of horse radish peroxidase (HRP) labeled anti-M13 monoclonal antibody (Pharmacia, Uppsala) in PBST were added to each well. One hour later, the plates were thoroughly washed and 100 μl of peroxidase substrate (25 ml of 0.1 M citrate acetate buffer pH 5.5, 0.4 ml of 6 mg/ml DMSO solution of 3,3′,5,5′-tetramethylbenzidine, and 0.1 ml of 1% H2O2) were dispensed into each well. The enzymatic reaction was stopped after 15-20 min by the addition of 50 μl of 2 M H2SO4, and the absorbance at 450 nm (corrected at 600 nm) was read in a microtiter plate reader (Multiskan MS, Labsystems). The supernatants showing high readings in wells coated with the immunocomplex and low response in antibody coated wells were prepared as stabilized phage suspensions (see below), and use for further analysis. For checkerboard titration, 100 μl of variable concentrations of the antibody (0.3-2 μg/ml) were used for coating.\nFifty μl per well of serial dilutions of molinate standard in PBST were dispensed into microtiter plates coated with MoAb 14D7, followed by the addition of 50 μl/well of the adequate dilution of the stabilized phage suspension. The antibody concentration used for coating and the proper dilution of the phage suspension had been previously optimized by checkerboard experiments. After an hour incubation period at room temperature, the plates were washed and developed as previously described. Absorbance values were fitted to a four-parameter logistic equation using the Genesis Lite 3.03 (Life Sciences (UK) Ltd.) package software. The lower detection limit (DL) of the assays was estimated as the analyte concentration corresponding to the absorbance equal to that of the zero standard plus three times its standard deviation)."}, "MoAb 14D7 [8]": {"system": "MoAb 14D7", "experiment": "Phage ELISA checkerboard titration: reactivity with the IC and the uncombined antibody", "type": "binding", "settings": "wide range of MoAb 14D7 coating densities, absence of molinate", "method": "as §1"}}, "note": "“And” between values parts separate entries of the source, which are not always exact repeats. Equal entries are not always repeated. No end group written: not given here.", "data": [{"compound": "O=C(O)c1ccc(O)cc1", "note": "[4-Hydroxybenzoic acid]", "values": [{"measurement": "CR (%)", "setting": "[1]", "value": 0, "unit": "%"}, {"measurement": "IC50", "setting": "[1]", "value": ">0.1", "unit": "µg/mL"}]}, {"compound": "CC1(C)C(C=C(Cl)Cl)C1C(=O)OC(C#N)c1cccc(Oc2ccccc2)c1", "note": "(stereo not drawn) [Cypermethrin]", "values": [{"measurement": "CR (%)", "setting": "[1]", "value": 0, "unit": "%"}, {"measurement": "IC50", "setting": "[1]", "value": ">0.1", "unit": "µg/mL"}]}, {"compound": "CC(C)C(C(=O)OC(C#N)c1cccc(Oc2ccccc2)c1)c1ccc(Cl)cc1", "note": "(stereo not drawn) [Esfenvalerate]", "values": [{"measurement": "CR (%)", "setting": "[1]", "value": 0, "unit": "%"}, {"measurement": "IC50", "setting": "[1]", "value": ">0.1", "unit": "µg/mL"}]}, {"compound": "O=C(O)CNC(=O)c1cccc(Oc2ccccc2)c1", "note": "[PBA-glycine conjugate]", "values": [{"measurement": "CR (%)", "setting": "[1]", "value": 0, "unit": "%"}, {"measurement": "IC50", "setting": "[1]", "value": ">0.1", "unit": "µg/mL"}]}, {"compound": "CC1(C)C(C=C(Cl)Cl)C1C(=O)OCc1cccc(Oc2ccccc2)c1", "note": "(stereo not drawn) [Permethrin]", "values": [{"measurement": "CR (%)", "setting": "[1]", "value": 0, "unit": "%"}, {"measurement": "IC50", "setting": "[1]", "value": ">0.1", "unit": "µg/mL"}]}, {"compound": "CCNc1nc(Cl)nc(NC(C)C)n1", "note": "[atrazine]", "values": [{"measurement": "IC50 of conventional chemical hapten assay", "setting": "MoAb K4E7 [2]", "value": 0.0005, "unit": "µg/mL"}, {"measurement": "IC50 of competitive assay set up with the same antibody", "setting": "MoAb K4E7 [3]", "value": "0.00064 ± 6e-05", "unit": "µg/mL"}, {"measurement": "SC50", "setting": "[4]", "value": "0.2 to 0.8", "unit": "ng/mL"}]}, {"compound": "CCSC(=O)N1CCCCCC1", "note": "[molinate]", "values": [{"measurement": "IC50 of competitive assay set up with heterologous chemical haptens", "setting": "MoAb 14D7 [5]", "value": "69 ng/ml and 69.2±1.4 ng/ml"}, {"measurement": "IC50 of phage competitive assay", "setting": "MoAb 14D7 [6]", "value": 0.045, "unit": "µg/mL"}]}, {"compound": "C N I W D T S G W C (CNIWDTSGWC; phage-displayed) [mH, phage clone from the mutagenesis library]", "values": [{"measurement": "SC50 (concentration of analyte producing 50% saturation)", "setting": "[7]", "value": "27 ± 2.0", "unit": "ng/mL"}]}, {"compound": "C N L W D T T G W C (CNLWDTTGWC; phage-displayed) [mF, phage clone from the mutagenesis library]", "values": [{"measurement": "SC50 (concentration of analyte producing 50% saturation)", "setting": "[7]", "value": "11 ± 0.5", "unit": "ng/mL"}]}, {"compound": "C N R W D T T G W C (CNRWDTTGWC; not fully specified (bridges); cysteine pairing not given here; also: phage-displayed on pVIII) [8M2]", "values": [{"measurement": "SC50 (concentration of analyte producing 50% saturation)", "setting": "[7]", "value": "6.1 ± 0.3 ng/mL and 6.0 ± 0.3 ng/mL"}]}, {"compound": "C S I W D T T G W C (CSIWDTTGWC; phage-displayed) [mI12, phage clone from the mutagenesis library]", "values": [{"measurement": "SC50 (concentration of analyte producing 50% saturation)", "setting": "[7]", "value": "8.1 ± 0.6", "unit": "ng/mL"}]}, {"compound": "C S L W D T T G W C (CSLWDTTGWC; phage-displayed) [mA, phage clone from the mutagenesis library]", "values": [{"measurement": "SC50 (concentration of analyte producing 50% saturation)", "setting": "[7]", "value": "8.5 ± 0.5", "unit": "ng/mL"}, {"measurement": "residual reactivity with the free (uncombined) antibody", "setting": "MoAb 14D7 [8]", "value": "little reactivity with the free antibody"}]}, {"compound": "C S T W D T T G W C (CSTWDTTGWC; also: phage-displayed on pVIII, cyclic, bridge not given here) [1M]", "values": [{"measurement": "SC50 (concentration of analyte producing 50% saturation)", "setting": "[7]", "value": "5.0 ± 0.4", "unit": "ng/mL"}, {"measurement": "SC50 (concentration of analyte producing 50% saturation)", "setting": "[7]; listed as S1", "value": 5, "unit": "ng/mL"}]}, {"compound": "C S V W D T S G W C (CSVWDTSGWC; not fully specified (bridges); cysteine pairing not given here; also: phage-displayed) [10M2]", "values": [{"measurement": "SC50 (concentration of analyte producing 50% saturation)", "setting": "[7]", "value": "32 ± 5 ng/mL and 32 ± 4.9 ng/mL"}, {"measurement": "SC50 (concentration of analyte producing 50% saturation)", "setting": "[7]; listed as S4", "value": 32, "unit": "ng/mL"}]}, {"compound": "C S Y W D T T G W C (CSYWDTTGWC; phage-displayed) [mG, phage clone from the mutagenesis library]", "values": [{"measurement": "SC50 (concentration of analyte producing 50% saturation)", "setting": "[7]", "value": "16 ± 0.7", "unit": "ng/mL"}]}, {"compound": "CTPVRWFDMC (phage-displayed) [13A]", "values": [{"measurement": "SC50", "setting": "[4]", "value": "0.0511 ± 0.002", "unit": "ng/mL"}]}]}
